Experiment [1] deals with T1, FatA (AtFatA) (Arabidopsis thaliana, UniProt Q42561).
T1 construct: residues 1-74 (chloroplast transit peptide) removed; noncleavable C-terminal His6 tag; codon-optimised gene in pET-24a(+), E. coli BL21(DE3); dimer by native mass spectrometry
T1 sequence (Q42561 75-362): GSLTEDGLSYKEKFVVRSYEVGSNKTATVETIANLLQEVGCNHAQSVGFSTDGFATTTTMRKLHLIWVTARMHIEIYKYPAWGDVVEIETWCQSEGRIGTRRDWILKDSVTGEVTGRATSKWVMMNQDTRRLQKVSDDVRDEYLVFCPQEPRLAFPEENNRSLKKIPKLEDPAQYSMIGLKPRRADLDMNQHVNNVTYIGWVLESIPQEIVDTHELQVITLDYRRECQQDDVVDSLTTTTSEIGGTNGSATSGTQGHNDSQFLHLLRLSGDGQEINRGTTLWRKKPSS
Kind of experiment: fluorescent CPM detection of CoA released from oleoyl-CoA. The experiment is classed as biochemical.

Experiment [2] addresses T1, FatA (AtFatA). Kind of experiment: X-ray crystal structure, fragment soak. The conditions noted are these: crystal soak […], […] DMSO, pH […]; herbicide binding site.
Experiment [3] concerns the target T1, FatA (AtFatA). Kind of experiment: SPR, steady-state […] fit, His-captured and amine-coupled FatA. The experiment is classed as binding.
Experiment [4] addresses T1, FatA (AtFatA). The experiment in a line: biochemical. Details: SPR (Biacore 8K, immobilized His-tagged FatA), steady-state affinity and 1:1 kinetic fits, 20 °C. The conditions noted are these: for kon: read-out: ka (1/Ms), kinetic fit; for koff: read-out: kd (1/s), kinetic fit; for ka / kd: kinetic fit; for ka: ka (1/Ms); for kd: kd (1/s). The source says:
The analogues were used to explore the binding capabilities of the herbicide pocket as well as tolerance to heterocyclic ring size. […] The resulting 60 compounds were either purchased from Enamine REAL or synthesized in‐house. […] Chemical structures of all x1816 analogues tested are available in Data S1. Binding data can be found in Data S2.

For experiment [5], the target named is T1, FatA (AtFatA). Kind of experiment: biochemical. To be noted: steady-state affinity fit. Details: SPR (Biacore 8K), His-captured FatA; steady-state affinity KD and kinetic fit (1:1 model). As to the method: FatA was immobilized on an NTA sensor chip (GE Healthcare, Chicago, IL, USA) using a Biacore 8K, captured via His‐tag and simultaneous amine coupling on EDC/NHS‐activated carboxyl groups (Immobilization buffer: 25 mM HEPES pH 7.4, 150 mM NaCl, 1 mM TCEP, 0.05% Tween 20). Equilibrium binding experiments were performed at 20 °C using a Biacore 8K instrument (GE Healthcare) with 25 mM HEPES pH 7.4, 150 mM NaCl, 1 mM TCEP, 0.05% Tween 20 and 2% DMSO as running buffer for compound testing. Compounds were injected over the chip in two‐fold dilution series either in multi‐cycle mode (60s/180s association/dissociation time) or single‐cycle kinetic mode (160 s/1800s association/dissociation time). Indicative K D values were obtained by steady‐state affinity fitting to a 1:1 binding site model.

The record followed here is publication PMC12713704, “Crystal structure of fatty acid thioesterase A bound by 129 fragments provides diverse development opportunities” (Pest Management Science, 2025).

Where “and” joins values, the source holds several entries; their conditions need not be identical. Identical values can stand only once. Like-named read-outs stand apart in the source and are kept apart here. A value given as a limit tells only on which side of the number the result lay.

As to `NS(=O)(=O)c1nc2ccccc2[nH]1` [x1168/x1231], the half-inhibitory concentration (IC50) in experiment [1] ([…] oleoyl-CoA, […] FatA, pH […], room temperature, active site (also dimer site), unreliable) is above 250 µM.
As to `Nc1cc(F)ccc1C(=O)O` [x1290], in experiment [2], the “X-ray crystal structure, fragment soak” value is “x1290 and x1437 which share a similar chemical motif and are both bound”.
With `O=C(O)c1sccc1-n1cccc1` [x1425], the concentration for half-maximal inhibition (IC50) in experiment [1] is above 250 µM.
`Cc1cccc(C(=O)O)c1N` [x1437]: the “X-ray crystal structure, fragment soak” value in experiment [2] is “x1290 and x1437 which share a similar chemical motif and are both bound”.
As for `Nc1ccc2oc(=O)ccc2c1` [x1463], the IC50 in experiment [1] came out at 142 µM.
As to `CNC1CCN(c2ccccc2F)C1=O` (stereo not shown) [x1573], the 50% inhibitory concentration (IC50) in experiment [1] is 29 µM.
In turn, `CC(=O)N1CCSc2ccccc2C1` [x1816-FU1] yielded a Kd in experiment [3] of around 0.09 µM. In experiment [4], the Kd was determined as 0.0741 µM, the kon was 463000 M⁻¹ s⁻¹ and the koff amounted to 0.0343 s⁻¹.
Regarding `CC(=O)N1CCSc2ccccc2C1` [x1816-FU1_repeat], in experiment [4], the “ka” value was 367000 M⁻¹ s⁻¹ and 305000 M⁻¹ s⁻¹; the “kd” value is 0.0326 s⁻¹ and 0.0293 s⁻¹.
With `CCC(=O)N1CCCc2ccccc2C1` [x1816-FU2], in experiment [4], the Kd was determined as 0.156 µM, the “ka” value stood at 321361.600232 M⁻¹ s⁻¹ and the koff is 0.0502 s⁻¹.
`CCC(=O)N1CCCc2ccccc2C1` [x1816-FU2_repeat]: in experiment [4], the “ka” value is 163000 M⁻¹ s⁻¹ and 124000 M⁻¹ s⁻¹; the “kd” value is 0.0811 s⁻¹ and 0.0645 s⁻¹.
Take `CCCC(=O)N1c2ccccc2CCC1C` (stereo not shown) [x1816-FU4]: in experiment [4], the Kd was found to be 1.16 µM, the kon was found to be 10100 M⁻¹ s⁻¹ and the koff amounted to 0.0117 s⁻¹.
In the case of `CCCC(=O)N1c2ccccc2CCC1C` (stereo not shown) [x1816-FU4_repeat], in experiment [4], the “ka” value is 12300 M⁻¹ s⁻¹ and 10600 M⁻¹ s⁻¹; the “kd” value was 0.0147 s⁻¹ and 0.0135 s⁻¹.
Consider `CC(=O)N1c2ccccc2OCC1C` (stereo not shown) [x1816-FU5], for which, in experiment [4], the dissociation constant Kd is 1.55 µM, the kon was 45000 M⁻¹ s⁻¹ and the koff came to 0.0695 s⁻¹.
Consider `CC(C)C(=O)N1c2ccccc2CCC1C` (stereo not shown) [x1816-FU6], for which, in experiment [4], the Kd was 1.63 µM, the kon amounted to 13600 M⁻¹ s⁻¹ and the koff amounted to 0.0222 s⁻¹.
As to `CCC(C)C(=O)N1c2ccccc2CCC1C` (stereo not shown) [x1816-FU7], in experiment [4], binding was characterised by a dissociation constant (Kd) of 1.96 µM, the kon turned out to be 4150 M⁻¹ s⁻¹ and the koff stood at 0.00811 s⁻¹.
The corresponding values for `CCC(=O)N1c2ccccc2CCC1C` (stereo not shown) [x1816-FU8] are 2.47 µM, 13900 M⁻¹ s⁻¹ and 0.0343 s⁻¹.
Consider `CC(=O)N1CCCc2c(Cl)ccc(F)c21` [x1816-FU9], for which, in experiment [4], the Kd turned out to be 3.06 µM, the kon turned out to be 59600 M⁻¹ s⁻¹ and the koff came out at 0.182 s⁻¹.
With `CC(=O)N1CCCc2cccc(F)c21` [x1816-FU10], in experiment [4], the Kd came to 3.1 µM, the kon came to 50900 M⁻¹ s⁻¹ and the koff was found to be 0.158 s⁻¹.
The corresponding values for `CC(=O)N1CC(C)(CO)Cc2ccccc21` (stereo not shown) [x1816-FU11] are 3.13 µM, 8170 M⁻¹ s⁻¹ and 0.0256 s⁻¹.
The corresponding values for `COCC(=O)N1c2ccccc2CCC1C` (stereo not shown) [x1816-FU12] are 4.42 µM, 20000 M⁻¹ s⁻¹ and 0.0885 s⁻¹.
The corresponding values for `CC(C)CC(=O)N1c2ccccc2CCC1C` (stereo not shown) [x1816-FU13] are 8.7 µM, 8080 M⁻¹ s⁻¹ and 0.0703 s⁻¹.
As to `CC1CCc2ccccc2N1C(=O)CC(C)(C)C` (stereo not shown) [x1816-FU14], in experiment [4], binding was characterised by a dissociation constant (Kd) of 19.9 µM, the kon came to 3010 M⁻¹ s⁻¹ and the koff amounted to 0.06 s⁻¹.
`COCC(=O)N1CC(C)(C)c2ccccc21` [x1816-FU42] yielded a dissociation constant Kd in experiment [5] of 57.7 µM.
Still for that read-out and setting: to `CCC1CCc2ccccc2N1C(C)=O` (stereo not shown) [x1816-FU43] belongs 68.1 µM; to `CC1CCc2ccccc2N1C(=O)NC(C)(C)C` (stereo not shown) [x1816-FU44], 91.5 µM.
As for `CC(=O)N1CCC(C)c2ccccc21` (stereo not shown) [x1816-FU45], in experiment [5], binding was characterised by a dissociation constant (Kd) of 93.8 µM.
As to `CC(=O)N1c2ccccc2C(C)CC1(C)C` (stereo not shown) [x1816-FU54], in experiment [5], the equilibrium dissociation constant (Kd) was above 100 µM.
On the same count and under the same terms, for `CC(=O)N1CCN(C)c2ncccc21` [x1816-FU56] the value was above 100 µM; for `CC(=O)N1CC(C)(C)c2ccccc21` [x1816-FU57], above 100 µM; for `CC(=O)N1c2ccccc2C(C)(C)CC1C` (stereo not shown) [x1816-FU58], above 100 µM.
Same read-out and setting: for `CC(=O)N1CCCc2cccnc21` [x1816-FU59] the value was above 100 µM.
The same measure, in the same setting: for `CC(=O)N1CCCc2ncccc21` [x1816-FU60] the value was above 100 µM.
Consider `O=C(Nc1ccccc1)N1CCCCCC1` [x1944*], for which, in experiment [1], the IC50 worked out at 43.9 µM.
Still for that read-out and setting: to `CNCC1COc2ccccc2O1` (stereo not shown) [x2004] belongs 25.6 µM.
